Results reported in US10047051B2, “Substituted pyridines and method of use” (AbbVie S.á{acute over (.)}r.l., priority 2015, dated 2018).

Columns and labels:
[1] = molecular target: T1, CFTR ΔF508 mutant (Homo sapiens, UniProt P13569, DEL508-508); assay: YFP-halide influx assay for the CFTR-ΔF508 mutation (CFBE41o- cells); format: cell-based; settings: forskolin 10.67 μM; for EC50: from (1−F/F0) vs concentration plot
T1 construct: expressed in transfected cells; host or cells: CFBE41o- cells, adenoviral transduction
T1 sequence (P13569 with tags, fused parts or gaps DEL508-508): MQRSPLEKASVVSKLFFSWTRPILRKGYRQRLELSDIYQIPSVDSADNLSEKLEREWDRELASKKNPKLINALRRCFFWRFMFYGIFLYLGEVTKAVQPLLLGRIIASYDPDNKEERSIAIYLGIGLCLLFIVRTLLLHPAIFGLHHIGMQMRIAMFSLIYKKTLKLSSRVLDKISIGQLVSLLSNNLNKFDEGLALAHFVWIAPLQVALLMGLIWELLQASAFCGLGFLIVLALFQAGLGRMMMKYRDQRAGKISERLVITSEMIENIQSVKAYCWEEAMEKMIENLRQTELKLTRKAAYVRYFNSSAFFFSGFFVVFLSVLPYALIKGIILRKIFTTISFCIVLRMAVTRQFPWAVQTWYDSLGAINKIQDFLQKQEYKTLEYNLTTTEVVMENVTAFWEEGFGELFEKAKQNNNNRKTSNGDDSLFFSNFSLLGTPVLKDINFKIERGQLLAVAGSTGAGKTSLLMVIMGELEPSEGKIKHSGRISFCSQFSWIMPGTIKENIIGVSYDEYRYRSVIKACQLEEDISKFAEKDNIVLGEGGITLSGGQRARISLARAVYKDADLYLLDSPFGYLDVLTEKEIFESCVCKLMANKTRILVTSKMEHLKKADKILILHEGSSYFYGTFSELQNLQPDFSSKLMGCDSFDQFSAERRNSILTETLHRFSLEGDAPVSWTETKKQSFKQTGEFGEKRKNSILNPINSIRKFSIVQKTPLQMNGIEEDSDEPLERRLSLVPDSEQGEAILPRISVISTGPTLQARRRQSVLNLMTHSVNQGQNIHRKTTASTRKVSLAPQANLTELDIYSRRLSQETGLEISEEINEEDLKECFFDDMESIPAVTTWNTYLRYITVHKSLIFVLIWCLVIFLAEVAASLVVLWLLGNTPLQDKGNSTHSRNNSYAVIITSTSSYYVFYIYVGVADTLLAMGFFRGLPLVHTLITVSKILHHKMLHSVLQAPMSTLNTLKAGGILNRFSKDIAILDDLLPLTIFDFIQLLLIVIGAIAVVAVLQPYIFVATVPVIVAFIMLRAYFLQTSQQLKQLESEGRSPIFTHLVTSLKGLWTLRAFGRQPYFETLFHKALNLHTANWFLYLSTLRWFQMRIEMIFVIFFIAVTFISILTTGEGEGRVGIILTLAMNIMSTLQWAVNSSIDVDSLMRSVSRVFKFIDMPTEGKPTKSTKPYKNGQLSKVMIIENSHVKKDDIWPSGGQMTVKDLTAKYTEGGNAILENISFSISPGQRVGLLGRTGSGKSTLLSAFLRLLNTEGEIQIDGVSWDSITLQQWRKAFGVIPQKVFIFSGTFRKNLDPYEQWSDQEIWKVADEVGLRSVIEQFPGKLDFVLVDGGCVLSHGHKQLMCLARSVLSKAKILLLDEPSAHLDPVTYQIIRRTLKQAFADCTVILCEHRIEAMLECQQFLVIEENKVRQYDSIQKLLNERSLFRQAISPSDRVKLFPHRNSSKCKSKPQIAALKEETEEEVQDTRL
How it was run: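 EC50 derived from plotting 1−F/F0 (fluorescence 36 s after iodide injection over pre-injection value) against compound concentration. Cells: CFBE41o- transduced with ΔF508-CFTR and YFP quench reporter, corrected 24 h at 27° C or by a CFTR modulator at 37° C.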

[2] = molecular target: T2, CFTR G551D mutant (Homo sapiens, UniProt P13569, G551D); assay: YFP-halide influx assay for the CFTR-G551D mutation (HEK293 cells); format: cell-based; settings: forskolin 10.67 μM
T2 construct: expressed in transfected cells; host or cells: HEK293 cells, reverse transfection with plasmids
T2 sequence (P13569 whole entry G551D): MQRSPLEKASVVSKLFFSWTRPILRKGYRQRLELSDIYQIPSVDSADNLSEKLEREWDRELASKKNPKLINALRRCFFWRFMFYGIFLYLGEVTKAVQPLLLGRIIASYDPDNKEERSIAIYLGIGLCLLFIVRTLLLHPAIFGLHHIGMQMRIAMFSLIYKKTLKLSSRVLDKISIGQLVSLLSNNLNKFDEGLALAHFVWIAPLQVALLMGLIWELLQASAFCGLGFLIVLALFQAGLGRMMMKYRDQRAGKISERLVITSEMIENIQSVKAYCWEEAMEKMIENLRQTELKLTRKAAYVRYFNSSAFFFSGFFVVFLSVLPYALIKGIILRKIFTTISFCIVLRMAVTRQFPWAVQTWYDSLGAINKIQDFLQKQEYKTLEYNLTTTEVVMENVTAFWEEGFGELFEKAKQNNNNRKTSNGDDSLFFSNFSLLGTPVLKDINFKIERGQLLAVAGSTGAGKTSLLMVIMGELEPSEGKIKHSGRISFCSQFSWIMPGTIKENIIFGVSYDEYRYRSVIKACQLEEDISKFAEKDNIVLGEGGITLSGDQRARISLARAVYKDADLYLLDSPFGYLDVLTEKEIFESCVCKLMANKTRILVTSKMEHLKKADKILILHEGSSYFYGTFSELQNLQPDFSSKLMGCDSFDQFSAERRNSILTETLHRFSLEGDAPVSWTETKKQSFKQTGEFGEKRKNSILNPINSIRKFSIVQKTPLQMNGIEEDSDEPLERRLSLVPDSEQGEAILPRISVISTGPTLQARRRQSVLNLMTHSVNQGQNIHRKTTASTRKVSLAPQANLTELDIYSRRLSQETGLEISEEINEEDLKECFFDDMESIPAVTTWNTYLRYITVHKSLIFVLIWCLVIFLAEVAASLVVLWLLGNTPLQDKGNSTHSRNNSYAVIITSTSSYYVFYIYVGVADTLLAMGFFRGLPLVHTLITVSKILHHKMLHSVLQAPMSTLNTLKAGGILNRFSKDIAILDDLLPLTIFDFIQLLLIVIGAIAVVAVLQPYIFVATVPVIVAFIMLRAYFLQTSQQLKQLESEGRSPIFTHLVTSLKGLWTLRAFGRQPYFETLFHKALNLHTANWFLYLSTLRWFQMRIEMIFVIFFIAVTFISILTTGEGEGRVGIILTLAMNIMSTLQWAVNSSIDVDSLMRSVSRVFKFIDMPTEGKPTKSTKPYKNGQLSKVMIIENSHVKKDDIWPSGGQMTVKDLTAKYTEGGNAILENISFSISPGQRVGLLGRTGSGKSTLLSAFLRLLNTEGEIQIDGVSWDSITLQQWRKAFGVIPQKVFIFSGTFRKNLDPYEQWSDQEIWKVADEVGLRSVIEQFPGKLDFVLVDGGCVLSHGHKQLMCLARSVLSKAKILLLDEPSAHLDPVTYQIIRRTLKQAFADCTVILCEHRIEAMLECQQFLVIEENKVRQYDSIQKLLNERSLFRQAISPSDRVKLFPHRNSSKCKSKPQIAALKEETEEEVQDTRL
How it was run: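 Channel opening read as I⁻-driven quenching of a YFP H148Q/I152L/F47L reporter over 7 s post-injection, expressed as 1−F/F0 and fitted against concentration for EC50. Cells were HEK293 co-transfected at seeding with G551D CFTR plus reporter, then grown 24 h at 37 °C, 5% CO2.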

Row | Compound | % Activation [1] [%] | EC50 [1] [nM] | % Activation [2] [%] | EC50 [2] [nM]
1 | Nc1cc(S(=O)(=O)c2ccc(OC(F)(F)F)cc2)cnc1C(=O)N1CCC(O)C1 (stereo not shown) [Compound 4, (3-amino-5-{[4-(trifluoromethoxy)phenyl]sulfonyl}pyridin-2-yl)(3-hydroxypyrrolidin-1-yl)methanone] | 92.1 | 206 | 43.6 | 5770
2 | Nc1cc(S(=O)(=O)c2ccc(OC(F)(F)F)cc2)cnc1C(=O)N1CC2(CCOC2)C1 [Compound 125, (3-amino-5-{[4-(trifluoromethoxy)phenyl]sulfonyl}pyridin-2-yl)(6-oxa-2-azaspiro[3.4]oct-2-yl)methanone] | 114.0 | 65.6 | 84.1 | 2210
3 | Nc1cc(S(=O)(=O)N2CCOc3ccccc32)cnc1C(=O)NCC(O)C(F)(F)F (stereo not shown) [Compound 109, 3-amino-5-(2,3-dihydro-4H-1,4-benzoxazin-4-ylsulfonyl)-N-(3,3,3-trifluoro-2-hydroxypropyl)pyridine-2-carboxamide] | 104.0 | 3.6 | 62.6 | 296
4 | CC(C)C1(O)CN(C(=O)c2ncc(S(=O)(=O)c3ccc(C(F)(F)F)cc3F)cc2N)C1 [Compound 162, (3-amino-5-{[2-fluoro-4-(trifluoromethyl)phenyl]sulfonyl}pyridin-2-yl)[3-hydroxy-3-(propan-2-yl)azetidin-1-yl]methanone] | 101.8 | 2.7 | 68.0 | 255
5 | CC(C)COCC(O)CNC(=O)c1ncc(S(=O)(=O)c2ccc(C(F)(F)F)cc2F)cc1N (stereo not shown) [Compound 170, 3-amino-5-{[2-fluoro-4-(trifluoromethyl)phenyl]sulfonyl}-N-[2-hydroxy-3-(2-methylpropoxy)propyl]pyridine-2-carboxamide] | 108.6 | 6.6 | 82.5 | 251
6 | CC(C)COCC(O)CNC(=O)c1ncc(S(=O)(=O)c2ccc(C(F)(F)F)cc2)cc1N (stereo not shown) [Compound 166, 3-amino-N-[2-hydroxy-3-(2-methylpropoxy)propyl]-5-{[4-(trifluoromethyl)phenyl]sulfonyl}pyridine-2-carboxamide] | 111.7 | 17.5 | 69.3 | 661
7 | Nc1cc(S(=O)(=O)c2ccc(OC(F)(F)F)cc2)cnc1C(=O)NCC1(CO)CC1 [Compound 22, 3-amino-N-{[1-(hydroxymethyl)cyclopropyl]methyl}-5-{[4-(trifluoromethoxy)phenyl]sulfonyl}pyridine-2-carboxamide] | 102.2 | 54.1 | 53.2 | 778
8 | Nc1cc(S(=O)(=O)c2ccccc2OC(F)(F)F)cnc1C(=O)N[C@@H]1COCC[C@@H]1O (racemic) [Compound 83, rac-3-amino-N-[(3R,4S)-4-hydroxytetrahydro-2H-pyran-3-yl]-5-{[2-(trifluoromethoxy)phenyl]sulfonyl}pyridine-2-carboxamide] | 98.3 | 6.3 | 90.4 | 1200
9 | Nc1cc(S(=O)(=O)c2ccc(OC(F)(F)F)cc2)cnc1C(=O)NCC1CC1 [Compound 155, 3-amino-N-(cyclopropylmethyl)-5-{[4-(trifluoromethoxy)phenyl]sulfonyl}pyridine-2-carboxamide] | 108.0 | 81.2 | 80.2 | 987
10 | Nc1cc(S(=O)(=O)c2ccc(C(F)(F)F)cc2F)cnc1C(=O)NCC(O)COCC1CC1 (stereo not shown) [Compound 132, 3-amino-N-[3-(cyclopropylmethoxy)-2-hydroxypropyl]-5-{[2-fluoro-4-(trifluoromethyl)phenyl]sulfonyl}pyridine-2-carboxamide] | 103.5 | 5.1 | 79.2 | 395
11 | Nc1cc(S(=O)(=O)c2ccc(OC(F)(F)F)cc2)cnc1C(=O)NCC(=O)NC1CC1 [Compound 58, 3-amino-N-[2-(cyclopropylamino)-2-oxoethyl]-5-{[4-(trifluoromethoxy)phenyl]sulfonyl}pyridine-2-carboxamide] | 92.2 | 20.6 | 42.3 | 1070

Other lines, results leading:

Row | % Activation [1] [%] | EC50 [1] [nM] | % Activation [2] [%] | EC50 [2] [nM] | Compound
12 | 88.2 | 3 | 73.2 | 473 | C[C@H](O)CNC(=O)c1nc(C2CC2)c(S(=O)(=O)c2ccc(OC(F)(F)F)cc2)cc1N [Compound 290, 3-amino-6-cyclopropyl-N-[(2S)-2-hydroxypropyl]-5-{[4-(trifluoromethoxy)phenyl]sulfonyl}pyridine-2-carboxamide]
13 | 82.0 | > 334 | 2.8 | > 5000 | C[C@H]1CCCN1S(=O)(=O)c1cnc(C(=O)N2CC(O)C2)c(N)c1 [Compound 272, (3-amino-5-{[(2S)-2-methylpyrrolidin-1-yl]sulfonyl}pyridin-2-yl) (3-hydroxyazetidin-1-yl)methanone]
14 | 60.5 | > 667 | 39.1 | > 10000 | Nc1cc(S(=O)(=O)c2ccc(OC(F)(F)F)cc2)cnc1C(=O)NC1(C(F)(F)F)COC1 [Compound 214, 3-amino-5-{[4-(trifluoromethoxy)phenyl]sulfonyl}-N-[3-(trifluoromethyl)oxetan-3-yl]pyridine-2-carboxamide]
15 | 103.0 | 25.4 | 71.5 | 841 | Nc1cc(S(=O)(=O)c2ccc(OC(F)(F)F)cc2)cnc1C(=O)NC[C@H](O)COCC1CC1 [Compound 242, 3-amino-N-[(2S)-3-(cyclopropylmethoxy)-2-hydroxypropyl]-5-{[4-(trifluoromethoxy)phenyl]sulfonyl}pyridine-2-carboxamide]
16 | 105.0 | 12 | 91.1 | 385 | Nc1cc(S(=O)(=O)c2ccc(C(F)(F)F)cc2)cnc1C(=O)NC[C@@H](O)COCC(F)(F)F [Compound 248, 3-amino-N-[(2R)-2-hydroxy-3-(2,2,2-trifluoroethoxy)propyl]-5-{[4-(trifluoromethyl)phenyl]sulfonyl}pyridine-2-carboxamide]
17 | 96.4 | 49 | 19.0 | > 10000 | Nc1cc(S(=O)(=O)c2ccc(C(F)(F)F)cc2)cnc1C(=O)NCC1CC1 [Compound 223, 3-amino-N-(cyclopropylmethyl)-5-{[4-(trifluoromethyl)phenyl]sulfonyl}pyridine-2-carboxamide]
18 | 115.5 | 3.6 | 77.2 | 364 | Nc1cc(S(=O)(=O)c2cccc(OC(F)(F)F)c2)cnc1C(=O)NCC(O)C(F)(F)F (stereo not shown) [Compound 236, 3-amino-N-(3,3,3-trifluoro-2-hydroxypropyl)-5-{[3-(trifluoromethoxy)phenyl]sulfonyl}pyridine-2-carboxamide]
19 | 96.2 | 3 | 83.7 | 172 | Nc1cc(S(=O)(=O)c2ccc(C(F)(F)F)cc2)cnc1C(=O)NC[C@H](O)COCC(F)(F)F [Compound 249, 3-amino-N-[(2S)-2-hydroxy-3-(2,2,2-trifluoroethoxy)propyl]-5-{[4-(trifluoromethyl)phenyl]sulfonyl}pyridine-2-carboxamide]
